Source: ChEMBL document CHEMBL3885881, “DrugMatrix”

Species on record: Rattus norvegicus
Experiment: DrugMatrix - Regimen: Daily Repeat
Assay type: toxicity, organism-based, Sprague-Dawley
Set-up: regimen Daily Repeat, gender Male, age 6-8 weeks
Settings: in vivo, iv, […], dose 2.5 mg/Kg, dose level High, vehicle 100 % SALINE; for ABSOLUTE BASOPHIL / ABSOLUTE EOSINOPHIL / ABSOLUTE LYMPHOCYTE / ABSOLUTE MONOCYTE / ABSOLUTE SEGMENTED NEUTROPHIL / BASOPHIL / EOSINOPHIL / ERYTHROCYTE COUNT / HEMATOCRIT / HEMOGLOBIN / LEUKOCYTE COUNT / LYMPHOCYTE / MEAN CORPUSCULAR HEMOGLOBIN / MEAN CORPUSCULAR HEMOGLOBIN CONCENTRATION / MEAN CORPUSCULAR VOLUME / MONOCYTE / NEUTROPHIL / NUCLEATED RED BLOOD CELLS / PLATELET COUNT: tissue Blood; for ALANINE AMINOTRANSFERASE / ALBUMIN / ALKALINE PHOSPHATASE / ASPARTATE AMINOTRANSFERASE / BLOOD UREA NITROGEN / CARBON DIOXIDE / CHLORIDE / CHOLESTEROL / CREATINE PHOSPHOKINASE / CREATININE / GLUCOSE / LACTATE DEHYDROGENASE / LIPASE / PHOSPHORUS / POTASSIUM / SODIUM / TOTAL BILIRUBIN / TOTAL PROTEIN / URIC ACID: tissue Plasma

## CC[N+](CC)(CC)CCOc1cccc(OCC[N+](CC)(CC)CC)c1OCC[N+](CC)(CC)CC.[I-].[I-].[I-] [GALLAMINE TRIETHIODIDE]
72 h, time 3 day
  ABSOLUTE BASOPHIL: 0 CELLS/uL
  ABSOLUTE EOSINOPHIL: 0 CELLS/uL
  ABSOLUTE LYMPHOCYTE: 15571.67 CELLS/uL
  ABSOLUTE MONOCYTE: 0 CELLS/uL
  ABSOLUTE SEGMENTED NEUTROPHIL: 1428.33 CELLS/uL
  BASOPHIL: 0%
  EOSINOPHIL: 0%
  ERYTHROCYTE COUNT: 5.32 x10E6/uL
  HEMATOCRIT: 34.57%
  HEMOGLOBIN: 13.83 G/DL
  LEUKOCYTE COUNT: 17 x10E3/uL
  LYMPHOCYTE: 91.67%
  MEAN CORPUSCULAR HEMOGLOBIN: 25.97 pg
  MEAN CORPUSCULAR HEMOGLOBIN CONCENTRATION: 40 G/DL
  MEAN CORPUSCULAR VOLUME: 64.93 fL
  MONOCYTE: 0%
  NEUTROPHIL: 8.33%
  NUCLEATED RED BLOOD CELLS: 1 /100WBC
  PLATELET COUNT: 1293 x10E3/uL
  ALANINE AMINOTRANSFERASE: 50 u/L
  ALBUMIN: 4.23 G/DL
  ALKALINE PHOSPHATASE: 314.67 u/L
  ASPARTATE AMINOTRANSFERASE: 74 u/L
  BLOOD UREA NITROGEN: 15.67 mg/dL
  CARBON DIOXIDE: 22.33 mmol/L
  CHLORIDE: 104.33 MEQ/L
  CHOLESTEROL: 65.67 mg/dL
  CREATINE PHOSPHOKINASE: 204 u/L
  CREATININE: 0.27 mg/dL
  GLUCOSE: 155 mg/dL
  LACTATE DEHYDROGENASE: 158 u/L
  LIPASE: 11.33 u/L
  PHOSPHORUS: 12.97 mg/dL
  POTASSIUM: 6.92 MEQ/L
  SODIUM: 147.33 MEQ/L
  TOTAL BILIRUBIN: 0.17 mg/dL
  TOTAL PROTEIN: 6 G/DL
  URIC ACID: 1.53 mg/dL
120 h, time 5 day
  ABSOLUTE BASOPHIL: 0 CELLS/uL
  ABSOLUTE EOSINOPHIL: 0 CELLS/uL
  ABSOLUTE LYMPHOCYTE: 13793.67 CELLS/uL
  ABSOLUTE MONOCYTE: 142.67 CELLS/uL
  ABSOLUTE SEGMENTED NEUTROPHIL: 830.33 CELLS/uL
  BASOPHIL: 0%
  EOSINOPHIL: 0%
  ERYTHROCYTE COUNT: 5.65 x10E6/uL
  HEMATOCRIT: 35.97%
  HEMOGLOBIN: 14.53 G/DL
  LEUKOCYTE COUNT: 14.77 x10E3/uL
  LYMPHOCYTE: 93.33%
  MEAN CORPUSCULAR HEMOGLOBIN: 25.73 pg
  MEAN CORPUSCULAR HEMOGLOBIN CONCENTRATION: 40.4 G/DL
  MEAN CORPUSCULAR VOLUME: 63.63 fL
  MONOCYTE: 1%
  NEUTROPHIL: 5.67%
  NUCLEATED RED BLOOD CELLS: 0.33 /100WBC
  PLATELET COUNT: 1259.67 x10E3/uL
  ALANINE AMINOTRANSFERASE: 54 u/L
  ALBUMIN: 4.23 G/DL
  ALKALINE PHOSPHATASE: 276.67 u/L
  ASPARTATE AMINOTRANSFERASE: 81.33 u/L
  BLOOD UREA NITROGEN: 15.67 mg/dL
  CARBON DIOXIDE: 21.33 mmol/L
  CHLORIDE: 105 MEQ/L
  CHOLESTEROL: 56.33 mg/dL
  CREATINE PHOSPHOKINASE: 248 u/L
  CREATININE: 0.19 mg/dL
  GLUCOSE: 147 mg/dL
  LACTATE DEHYDROGENASE: 275.33 u/L
  LIPASE: 10 u/L
  PHOSPHORUS: 12.67 mg/dL
  POTASSIUM: 6.58 MEQ/L
  SODIUM: 146.13 MEQ/L
  TOTAL BILIRUBIN: 0.2 mg/dL
  TOTAL PROTEIN: 6.13 G/DL
  URIC ACID: 1.47 mg/dL
